42 compounds from ChEMBL document CHEMBL5335870, “Discovery of Hepatitis B Virus Surface Antigen Suppressor GS-8873” (ACS Med Chem Lett, 2024) can be followed below.

Calls of active or inactive are those of the source. No cut-off for these calls is given here. Bounds are passed on as bounds.

Data set [1] in a line: Lipophilicity, logD of the compound. It is filed as physicochemical. To be noted: octanol/water.
In another data set the test system is Hepatitis B virus. The experiment in a line: Antiviral activity against genotype D HBV infected in sodium taurocholate co-transporting polypeptide receptor-expressing stable HepG2 cell line assessed as suppression of HBsAg level incubated for 5 days by multiplex chemiluminescent MSD assay. It is filed as functional, organism-based. To be noted: HepG2, 120 h.

Data set [2] can be described thus: In vivo clearance in rat. The class given is ADME, organism-based.
Data set [3] can be described thus: In vivo clearance in dog. It is filed as ADME, organism-based, Canis lupus familiaris.
Data set [4] in a line: In vivo clearance in cynomolgus monkey. It is filed as ADME, organism-based, Macaca fascicularis.
Data set [5] is described as follows: Hepatic extraction in rat. The conditions noted are these: read-out: ERH. It is filed as ADME.
Data set [6] is described as follows: Hepatic extraction in dog. The class given is ADME, Canis lupus familiaris. To be noted: read-out: ERH.
The nature of data set [7]: Hepatic extraction in cynomolgus monkey. It is filed as ADME, Macaca fascicularis. To be noted: read-out: ERH.
Data set [8] can be described thus: Oral bioavailability in rat at 5 mg/kg. It is filed as ADME, organism-based. To be noted: in vivo.
A short description of data set [9]: Oral bioavailability in cynomolgus monkey at 5 mg/kg. The conditions noted are these: in vivo. The class given is ADME, organism-based, Macaca fascicularis.
Data set [10] in a line: Clearance in Sprague-Dawley rat at […], iv measured after 24 hrs by LC/MS/MS method. The class given is ADME, organism-based. To be noted: in vivo.
Data set [11] can be described thus: Oral bioavailability in Sprague-Dawley rat after 24 hrs by LC/MS/MS method. To be noted: in vivo. It is filed as ADME, organism-based.
Data set [12] can be described thus: Oral bioavailability in dog at 5 mg/kg. It is filed as ADME, organism-based, Canis lupus familiaris. To be noted: in vivo.
Data set [13] concerns Primary hepatocyte. Put plainly: Effect on cccDNA level in HBV infected primary human hepatocyte at 0.25 uM media replaced for every 2 to 3 days incubated for 12 days by Southern blot analysis. The class given is functional, cell-based. The conditions noted are these: Hepatitis B virus, time 12.0 day.
Data set [14] has as its system Primary hepatocyte. The experiment in a line: Effect on cccDNA level in HBV infected primary human hepatocyte at 0.5 uM media replaced for every 2 to 3 days incubated for 12 days by Southern blot analysis. The class given is functional, cell-based. The conditions noted are these: Hepatitis B virus, time 12.0 day.

In [1], `COCCCOc1cc2c(cc1OC)-c1cc(=O)c(C(=O)O)cn1C(C1(C)CC1)C2` (stereo not given) yielded a logD of 2.2.
As for `COCCCOc1cc2c(cc1Cl)-c1cc(=O)c(C(=O)O)cn1[C@H](C(C)(C)C)C2`, the EC50 in the data set on Hepatitis B virus came out at 150 nM. This compound showed a logD in data set [1] of 2.5. Besides, the figures for the clearance in data set [2], in data set [3] and in data set [4] were 5 mL/min/kg, 6 mL/min/kg and 2.83 mL/min/kg, respectively. Moreover, the hepatic extraction ratio in [5] came out at 0.071; in [6] it was 0.2; in [7], 0.11. For the same compound, the values for the bioavailability in [8] and in data set [9] were 41% and 120%, respectively.
Turning to `CC(C)(C)N1Cc2cc(C#Cc3cnc(N4CC5CCC(C4)N5C4COC4)nc3)c(Cl)cc2-c2cc(=O)c(C(=O)O)cn21`, the EC50 in the data set with Hepatitis B virus came to 2.1 nM. This compound also had a clearance in [10] of 15 mL/min/kg. For the same compound, in [11], the bioavailability is 30%.
Turning to `COCCCOc1cc2c(cc1OC)-c1cc(=O)c(C(=O)O)cn1N1[C@@H]2CCC1(C)C`, the EC50 in the data set with Hepatitis B virus came to 2.1 nM. This compound also had a clearance in data set [10] of 16.7 mL/min/kg. Besides, in [11], the bioavailability was determined as 84%.
`CC(C)(C)N1Cc2cc(C#Cc3ccc(N4CC5CCC(C4)O5)nc3)c(Cl)cc2-c2cc(=O)c(C(=O)O)cn21`: in the data set with Hepatitis B virus, the EC50 was determined as 1.5 nM.
For `COCCCOc1cc2c(cc1OCC(F)F)-c1cc(=O)c(C(=O)O)cn1N1[C@@H]2CCC1(C)C`, in the data set with Hepatitis B virus, the EC50 came to 5.8 nM. The clearance in data set [10] was 13.8 mL/min/kg. Further, the bioavailability in [11] stood at 58%.
As for `COCCCOc1cc2c(cc1Cl)-c1cc(=O)c(C(=O)O)cn1N1[C@H]2CCC1(C)C`, the EC50 in the data set on Hepatitis B virus was 420 nM.
For the compound `CC(C)(C)N1Cc2cc(OCCCOc3cnn(C(F)F)c3)c(Cl)cc2-c2cc(=O)c(C(=O)O)cn21`, the EC50 in the data set with Hepatitis B virus stood at 3.9 nM. Moreover, the clearance in data set [10] was 25 mL/min/kg.
For the compound `COCCOCc1cc2c(cc1Cl)-c1cc(=O)c(C(=O)O)cn1N(C(C)(C)C)C2`, in the data set with Hepatitis B virus, the EC50 was 210 nM.
For the compound `COCCCOc1cc2c(cc1Cl)-c1cc(=O)c(C(=O)O)cn1N1CCC(C)(C)[C@H]21`, the EC50 in the data set on Hepatitis B virus was 12 nM.
In the case of `COCCCOc1cc2c(cc1OC)-c1cc(=O)c(C(=O)O)cn1[C@H](C(C)C)C2`, the EC50 in the data set with Hepatitis B virus is 15 nM. In [1], this compound displayed a logD of 2.1. Also, the clearance in data set [2] was 18.3 mL/min/kg; in data set [3] it was 11.2 mL/min/kg; in [4], 11.3 mL/min/kg. Also, the hepatic extraction ratio came out at 0.26 in data set [5], 0.37 in data set [6] and 0.43 in [7]. For the same compound, the bioavailability in [8] is 56%; in data set [12], 90%; in data set [9], 84%.
`COCCCOc1cc2c(cc1Cl)-c1cc(=O)c(C(=O)O)cn1N1[C@@H]2CCC12CC2`: in the data set with Hepatitis B virus, the EC50 came out at 1 nM.
`CC(C)(C)N1Cc2cc(-c3ccccn3)c(Cl)cc2-c2cc(=O)c(C(=O)O)cn21`: the EC50 in the data set with Hepatitis B virus worked out at 47 nM.
Take `COCCCOc1cc2c(cc1OC(C)C)-c1cc(=O)c(C(=O)O)cn1N1[C@@H]2CCC1(C)C`: the EC50 in the data set on Hepatitis B virus worked out at 6.4 nM. Also, in data set [10], the clearance is 16.2 mL/min/kg. Also, in data set [11], the bioavailability is 95%.
For `CC(C)(C)N1Cc2cc(OCC3COC3)c(Cl)cc2-c2cc(=O)c(C(=O)O)cn21`, in the data set with Hepatitis B virus, the EC50 stood at 7.6 nM. The same compound had a clearance in [10] of 20 mL/min/kg. For the same compound, in data set [11], the bioavailability amounted to 91%.
Regarding `CN(C)CCCOc1cc2c(cc1Cl)-c1cc(=O)c(C(=O)O)cn1N(C(C)(C)C)C2`, in the data set with Hepatitis B virus, the EC50 amounted to 620 nM.
The same measure, in the same setting: the value for `COCCCNc1cc2c(cc1Cl)-c1cc(=O)c(C(=O)O)cn1N(C(C)(C)C)C2` was 18 nM.
Regarding `CC(C)(C)N1Cc2cc(OCC3CC(F)(F)C3)c(Cl)cc2-c2cc(=O)c(C(=O)O)cn21`, the EC50 in the data set with Hepatitis B virus was 12 nM. Moreover, the clearance in [10] is 4.17 mL/min/kg. Besides, the bioavailability in [11] turned out to be 56%.
For the compound `COCCCOc1cc2c(cc1Cl)-c1cc(=O)c(C(=O)O)cn1N1[C@@H]2COCC1(C)C`, in the data set on Hepatitis B virus, the concentration for a half-maximal effect (EC50) was found to be 2.9 nM.
With `COCCCOc1cc2c(cc1Cl)-c1cc(=O)c(C(=O)O)cn1N1[C@@H]2CC[C@@H]1C`, the EC50 in the data set on Hepatitis B virus stood at 5.4 nM.
For the compound `COCCCOc1cc2c(cc1Cl)-c1cc(=O)c(C(=O)O)cn1N1[C@@H]2CC1(C)C`, the EC50 in the data set on Hepatitis B virus amounted to 4 nM.
Still for that read-out and setting: the value for `COCCCOc1cc2c(cc1Cl)-c1cc(=O)c(C(=O)O)cn1N1[C@@H]2CCC12COC2` was 72 nM; that for `COCCCOc1cc2c(cc1OCCCOC)[C@H]1CCC(C)(C)N1n1cc(C(=O)O)c(=O)cc1-2` was 11 nM.
Regarding `CC(C)(C)N1Cc2cc(C#CC3CC3)c(Cl)cc2-c2cc(=O)c(C(=O)O)cn21`, in the data set with Hepatitis B virus, the EC50 was determined as 16 nM.
As for `COCCCOc1cc2c(cc1OC(C)(C)C)-c1cc(=O)c(C(=O)O)cn1N1[C@@H]2CCC1(C)C`, the EC50 with Hepatitis B virus was 78 nM.
As to `COCCCOc1cc2c(cc1Cl)-c1cc(=O)c(C(=O)O)cn1N1CCC[C@H]21`, the EC50 in the data set on Hepatitis B virus amounted to 55 nM.
On the same count and under the same terms, the value for `CCc1cc2c(cc1OCCCOC)[C@H]1CCC(C)(C)N1n1cc(C(=O)O)c(=O)cc1-2` was 0.45 nM; that for `COCCCOc1cc2c(cc1Cl)-c1cc(=O)c(C(=O)O)cn1N1[C@H](C)CC[C@H]21` was 11 nM.
On to `COCCCOc1cc2c(cc1Cl)-c1cc(=O)c(C(=O)O)cn1N1[C@@H]2CCC1(C)C`, for which the EC50 in the data set with Hepatitis B virus is 1.7 nM. In data set [10], this compound had a clearance of 4.5 mL/min/kg. Also, in [11], the bioavailability was determined as 66%.
The like results for `CCOc1cc2c(cc1OCCCOC)[C@H]1CCC(C)(C)N1n1cc(C(=O)O)c(=O)cc1-2` were, in that order, 7.5 nM, 20 mL/min/kg and greater than 100%.
`COCCCOc1cc2c(cc1C1COC1)-c1cc(=O)c(C(=O)O)cn1N1[C@@H]2CCC1(C)C`: the EC50 with Hepatitis B virus was 13 nM.
As to `COCCCOc1cc2c(cc1Cl)-c1cc(=O)c(C(=O)O)cn1[C@H](C1(C)CC1)C2`, the EC50 in the data set on Hepatitis B virus is 3.8 nM. In data set [1], the logD was 2.4. Further, in the data set on Primary hepatocyte [13], the outcome was inactive.
As to `C[C@H](Cn1cnc2c(N)ncnc21)OCP(=O)(O)O`, in the data set with Primary hepatocyte [14], the result was inactive.
With `COCCCOc1cc2c(cc1OC(F)F)-c1cc(=O)c(C(=O)O)cn1N1[C@@H]2CCC1(C)C`, the EC50 in the data set on Hepatitis B virus is 0.97 nM. Besides, in data set [10], the clearance is 9 mL/min/kg. Further, the bioavailability in data set [11] is 60%.
Turning to `COCCCOc1cc2c(cc1Cl)-c1cc(=O)c(C(=O)O)cn1N1CC(C)(C)C[C@H]21`, the EC50 with Hepatitis B virus came out at 41 nM.
With `COCCCOc1cc2c(cc1C1CC1)-c1cc(=O)c(C(=O)O)cn1N1[C@@H]2CCC1(C)C`, in the data set on Hepatitis B virus, the EC50 worked out at 0.78 nM. The compound also had a clearance in data set [10] of 16.7 mL/min/kg.
For `COCCCOc1cc2c(cc1Cl)-c1cc(=O)c(C(=O)O)cn1N1[C@@H]2CCCC1(C)C`, the EC50 in the data set on Hepatitis B virus turned out to be 2 nM.
Take `COCCCOc1cc2c(cc1S(C)(=O)=O)-c1cc(=O)c(C(=O)O)cn1N1[C@@H]2CCC1(C)C`: the EC50 with Hepatitis B virus was determined as 52 nM.
Consider `COCCCOc1cc2c(cc1Cl)-c1cc(=O)c(C(=O)O)cn1N(C(C)(C)C)[C@H]2C`, for which the EC50 in the data set on Hepatitis B virus worked out at 97 nM.
Regarding `COCCCOc1cc2c(cc1Cl)-c1cc(=O)c(C(=O)O)cn1N(C(C)(C)C)[C@@H]2C`, the EC50 in the data set with Hepatitis B virus is 390 nM.
Consider `COCCCOc1cc2c(cc1OC(F)(F)F)-c1cc(=O)c(C(=O)O)cn1N1[C@@H]2CCC1(C)C`, for which, in the data set on Hepatitis B virus, the EC50 was 1.1 nM. This compound gave a clearance in [10] of 8 mL/min/kg. For the same compound, the bioavailability in [11] came out at 47%.
`CC(C)(C)N1Cc2cc(N3CCCC3)c(Cl)cc2-c2cc(=O)c(C(=O)O)cn21`: in the data set on Hepatitis B virus, the EC50 turned out to be 1 nM.

Broadly, the logD is the decadic logarithm of the distribution of all forms, ionised or not, between an organic phase and buffer at a given pH. The term EC50 denotes the concentration that produces a half-maximal response. In general, clearance refers to the volume of plasma or blood freed of the substance per unit of time.
